Results as given in US20210401862A1, “METHODS FOR MODULATING CORTICOSTERONE LEVELS IN PSYCHOLOGICALLY STRESSED INDIVIDUALS” (ABBOTT LABORATORIES, priority 2012, published 2021).

Tested on: early stressed maternally deprived mice
Test: Serum stress hormones after acute restraint stress in maternally separated (early stressed) mice fed experimental diets
Format: in vivo, C57BL/6 mice
Description: In this Example, the effects of 2-fucosyl-lactose on the production of serum corticosterone in early stressed maternally deprived mice were analyzed. Initially, mice pups were early stressed using a model of maternal separation. Particularly, one day after delivery, C57BL/6 mice pups were sexed and grouped as sham (non-stressed Control group) or maternally separated (MS—stressed group) animals. From day 2 until day 14 after delivery, the MS pups were removed from the dam and kept isolated for a period of 4 hours per day, typically, from 10:00 AM to 2:00 PM, in a thermostatted cup. During the same time period, pups from the sham group were daily handled for a period of five minutes in order to receive the same grade of habituation to a researcher's hands as the MS pups. Each dam had litters of 4 males and 2 females. Females were allowed to stay with the mother, while males were maternally deprived in order to avoid stressing the dam by removing all of the pups. Additionally, pups from the MS group were prematurely weaned, and thus permanently removed from the dam, at postnatal day 17, whereas sham pups were not weaned until postnatal day 21. At postnatal day 22, all pups in the MS group were pooled and four experimental groups were made before starting nutritional intervention. [table] At the nutritional intervention stage, mice were fed experimental diets for a period of eight weeks. After eight weeks, blood samples were taken from facial veins of the mice in order to measure basal stress hormones (i.e., corticosterone, adrenocorticotropic hormone (ACTH), and melatonin). Stress hormones were measured using luminex technology using a multiplex commercial kit (commercially available from Millipore Corporation, Billerica, Mass.) Seven days later, mice were submitted to an acute stress by restraint protocol. Particularly, mice were placed into a multi-drilled 50-ml centrifuge tube for 20 minutes. After this time, mice were extracted from the tube, and again, blood samples were taken in order to measure serum stress hormones immediately after the acute stressful event (i.e., restraint).

[1] = MS-stressed mice, supplemented diet about 7 mg/mouse/day, post-restraint, stated for any of the experimental groups

## 2-fucosyl-lactose [2-fucosyllactose]
AIN93G diet with about 7 mg/mouse/day for eight weeks, blood taken immediately after 20 minutes restraint, Group C vs MS control Group D
  serum corticosterone levels in response to restraint, compared with MS mice on the control diet: significantly lower
MS-stressed mice, AIN93G diet with about 7 mg/mouse/day for eight weeks, blood taken immediately after 20 minutes restraint, Group C vs sham Group E
  serum corticosterone levels in response to restraint, compared with normal sham mice: equal that of the normal sham mice
[1]
  ACTH serum levels post-restraint: no effects
  melatonin serum levels post-restraint: no effects
